Measured values: patent publication EP1432717B1, “SUBSTITUTED DISILOXANES, METHOD FOR THE PRODUCTION THEREOF AND THE USE THEREOF FOR REVERSAL OF MULTIDRUG RESISTANCE (MDR)” (Molnar, Jozsef, priority 2000, dated 2002)
Counter-ions that a name gives are not always drawn.

Legend:
gp-170 Protein = assay: Rhodamine-123 efflux pump inhibition assay (cell sorter fluorescence FL1); assay type: cell-based, Maus; conditions: for 100%-ige Hemmungsbereich (concentration range giving 100% inhibition of the efflux pump): considerable variation between repeats
Experimental: 0,5 ml 2x10^6 /ml L-5178Y parental und Mdr Mauslymphomazellen wurden 10 Min. lang mit 40,0 200,0 und 1000 ng ALIS-409 inkubiert. Danach wurden die Zellen mit Rhodamin-123 Indikatorfarbstoff (Endkonzentration: 5,2 µMol) bei 37C° für 20 Min. inkubiert. Die Zellen wurden mit PBS gewaschen und die Fluoreszenz-Intensität (FL1) mittels Cellsorter gemessen. Die Intensität der unbehandelten parentalen Zellen entsprach der 100%igen Hemmung.
(§1) Die Intensität der unbehandelten Mdr-Zellen entsprach der 100%-igen Effluxpumpemktivität. Bei mehrfach wiederholten unabhängigen Versuchen in Deutschland und in Ungam wurde eine Inhibition der Effluxpumpen bereits bei 40,0 ng/ml Konzentration zwischen 20-45% gefunden und bei etwa 200,0 ng/ml Konzentration eine 80%-ige Hemmung erreicht. Der 100%-ige Hemmungsbereich liegt etwa zwischen 300-800 ng/ml. Es gab zwar eine erhebliche Schwankung bei der Wiederholung, jedoch fiel immer die 100%-ige Hemmung in den Nanogramm Bereich. Bei der Überprüfung von Mdr-Gen-Expression mittels PCR wurde kein Einfluss dieser ALIS-Verbindung auf die Reduktion oder Verstärkung der Mdr RNA Synthese gefunden. Das ist deshalb günstig, weil die Mdr auch eine wichtige physiologische Rolle bei den Entgiflungsmechanismen der gesunden Zellen (z.B. Nierenzellen) spielt und nach der Beendigung der Therapie das aktive gp-170 Protein wieder produziert werden kann. Außerdem wirkt ALIS-409 auch allein cancerostatisch - und zwar gegenüber gp-170 positiv (EPG85-257RDB) Magencarcinomazellen in vitro. Es wurde die folgende Proliferationshemmung nachgewiesen: 41% bei 100 ng/ml und 74% bei 300 ng/ml.
Die methodische Überprüfung war mit dem Beispiel 3 identisch. Auch die Inhibition der Effluxpumpenaktivitäten waren ähnlich groß. Im Konzentrationsbereich 200-500 ng/ml konnte eine 100%-ige Inhibition erreicht werden. […] Die schnelle Hemmung nach einer 10-minütigen Inkubatioszeit weist auf eine direkte Interaktion zwischen der Substanz und dem gp-170 Protein hin.

Mdr RNA Synthese = assay: PCR check of Mdr gene expression; assay type: cell-based
Experimental: as §1
Die methodische Überprüfung war mit dem Beispiel 3 identisch. Auch die Inhibition der Effluxpumpenaktivitäten waren ähnlich groß. Im Konzentrationsbereich 200-500 ng/ml konnte eine 100%-ige Inhibition erreicht werden. […]

[1] = system: gp-170 positiv (EPG85-257RDB) Magencarcinomazellen; assay: In vitro proliferation inhibition (compound alone); assay type: cell-based
Experimental: as §1

[2] = In vivo toxicity test in mice; design: species or system Mäuse; conditions: for survival: mouse, in vivo, 10 mg/kg, 10,0 mg/kg, read-out: Überleben der Mäuse
From the text: Der Erfindung liegt die Aufgabe zugrunde, Verbindungen zur Verfügung zu stellen, mit denen sich die Wirksamkeit von Zytostatika verbessern lässt. Die Aufgabe wurde erfindungsgemäß durch die Bereitstellung von neuen organischen Siliciumverbindungen der Formel I gelöst. Die erfindungsgemäßen neuen substituierten Disiloxane der allgemeinen Formel I [drawing 2] enthalten folgenden Substituenten: • R^1 = Methyl, Ethyl, Phenyl oder tertiär Butyl • R^2 = X (Halogen: Cl, Br, F), CX3, (para, ortho, meta), • n = 0-1, m = 1-3 • Q = Alkyl, Cycloalkyl, sekundäres Amin, Morpholin, substituiertes Piperazin, worin [drawing 3] • R^3 = Methyl, Ethyl, Butyl, Phenyl, Benzyl, -(CH2)pSi(R^4)3 mit p = 1 - 3 und R^4 = Methyl, Ethyl bedeuten. Die erfindungsgemäß bereitgestellten Verbindungen werden durch Umsetzung von substituierten Alkyl-dichlor-silanen mit Aryl-Grignard-Verbindungen gewonnen und daraus durch acide Hydrolyse Disiloxane, die ihrerseits im Fall von Halogen-Alkylen mit Aminen umgesetzt werden. In speziellen Fällen wird Magnesium mit 4-Fluor-brombenzol umgesetzt und daraus durch Reaktion mit 3-Chlorpropyl-methyl-dichlorsilan das Zwischenprodukt 1,3-bis(4-fluorophenyl)-1,3-dimethyl-1,3-bis(3-chloropropyl)-disiloxan gewonnen. Dieses Produkt wird seinerseits mit Morpholin zu ALIS 409 oder mit 4-Butyl-piperazin zu ALIS 421 (Beispiele 2 und 3) umgesetzt. Überraschendweise hat sich herausgestellt, dass es sich bei den erfindungsgemäßen neuen substituierten Disiloxane um biologisch wirksame, nicht toxische Verbindungen handelt, die zur Umkehrung der Multidrogeresistenz (Mdr) der malignen Tumorzellen und pathogenen Erreger fähig sind und die Effluxpumpenaktivität der malignen Mdr-Tumorzellen und die Pgp-Resistenz von parasitären Zellen, Pilzen sowie von Bakterien bereits im ng/ml-Konzentrationsbereich stark inhibieren. Die neuen substituierten Disiloxane finden Verwendung als Zytostatika und in der Chemotherapie - auch in Kombination mit anderen Mitteln. Es ist überraschend, dass sie eine starke Chemosensitation der resistenten Mdr-Tumorzellen verursachen und ihre Effluxpumpenaktivität unterdrücken. Dadurch lässt sich die intrazelluläre Chemotherapeutikum-Konzentration so hoch ansetzen, dass kein Unterschied mehr im Vergleich mit parentalen Zellen nachgewiesen werden kann. Die als ALIS-Verbindungen bezeichneten erfindungsgemäßen Substanzen sind dadurch gekennzeichnet, dass sie biologisch wirksam sind und die Effluxpumpenaktivität der malignen Mdr-Tumorzellen, Pgp-Resistenz von parasitären Zellen, Pilzen und Bakterien bereits im ng/ml-Konzentrationsbereich stark inhibieren. Auch in höheren Konzentration wirken sie in vivo nicht toxisch. Nach dem Zell-Substanz-Kontakt sind sie sofort wirksam. Die ALIS-Verbindungen sind dadurch gekennzeichnet, dass sie hauptsächlich die Wirksamkeit der Chemotherapie erhöhen, aber auch allein zytostatisch wirken. Die Toxizität der neuen Verbindungen wurde im Maussytem getestet. Das Ergebnis war überraschend gut. Trotz zehnfacher Überdosierung konnte der ID-50 Wert nicht ermittelt werden, da die Mäuse die Behandlung 100%-ig überlebt haben und kein Gewichtsverlust auftrat. In manchen Fällen bekamen die Mäuse scheinbar sogar mehr Appetit. Alle Ergebnisse weisen darauf hin, dass die erfindungsgemäß bereitgestellten Verbindungen zum Einsatz in der Chemotherapie von Tumoren bzw. von Infektionskrankheiten geeignet sind. […]

[3] = Water solubility (stated in heading)
[4] = L-5178Y Mdr Mauslymphomazellen, 10 min incubation

Row | Structure (SMILES) | Inhibition der Effluxpumpen (gp-170 Protein; 40,0 ng/ml, L-5178Y Mdr Mauslymphomazellen, 10 min incubation, repeated independent experiments) | 100%-ige Hemmungsbereich (concentration range giving 100% inhibition of the efflux pump) (gp-170 Protein; [4]) [ng/mL] | Hemmung (Effluxpumpen) (gp-170 Protein; about 200,0 ng/ml, L-5178Y Mdr Mauslymphomazellen, 10 min incubation) [%] | Einfluss auf die Mdr-Gen-Expression (Mdr RNA Synthese) (Mdr RNA Synthese) | inhibition at 0.1 µg/mL ([1]; 100 ng/ml, EPG85-257RDB, read-out: Proliferationshemmung) [%] | inhibition at 0.3 µg/mL ([1]; 300 ng/ml, EPG85-257RDB, read-out: Proliferationshemmung) [%] | Gewichtsverlust ([2]; 10,0 mg/kg) | survival [2] [%] | Wasserlöslichkeit [3] | Inhibition der Effluxpumpenaktivität (in words) (gp-170 Protein; Mdr tumour cells, qualitative statement) | cancerostatischer Effekt allein ([1]; comparison in words) | Toxizität ([2]; 10,0 mg/kg)
1 | C[Si](CCCN1CCOCC1)(O[Si](C)(CCCN1CCOCC1)c1ccc(F)cc1)c1ccc(F)cc1 (centres unmarked) [ALIS-409, 1,3-Dimethyl-1,3-bis(4-fluorophenyl)-1,3-bis(3-morpholino-propyl)-disiloxan-dihydrochlorid] | 20-45% | 300 to 800 | 80 | kein Einfluss | 41 | 74 | ohne Gewichtsverlust | 100 | sehr gut wasserlöslich |  |  | 
2 | CCCCN1CCN(CCC[Si](C)(O[Si](C)(CCCN2CCN(CCCC)CC2)c2ccc(F)cc2)c2ccc(F)cc2)CC1 (centres unmarked) [ALIS-421, 1,3-Dimethyl-1,3-bis(4-fluorophenyl)-1,3-bis{3-[1(4-butyl-piperazinyl)]-propyl}-disiloxan-tetrahydrochlorid] |  | 200 to 500 |  | keinen Einfluss |  |  | ohne Gewichtsverlust | 100 | sehr gut wasserlöslich | ähnlich groß | schwächer als bei ALIS 409 | nicht toxisch
